# Data reported in patent US20150064724A1, “BIOMARKERS FOR PROGNOSES OF PULMONARY DISEASES” (University of Pittsburgh - of the Commonwealth System of …, priority 2009, published 2015).
# Test system: CD4+CD28null T cells from lung transplant recipients with BOS
# Test: Inhibition of proliferation by cyclosporine A (BrdU incorporation, flow cytometry)
# Format: cell-based, human
# Details: preliminary findings, n=2 subjects; compared with CD4+CD28+ cells
# Procedure: Segregated CD28+ and CD28null CD4 T-cell subpopulations were individually cultured in duplicate wells coated with anti-CD3 monoclonal antibody (OKT3) (see above). Autologous nurse cells, positively selected during the initial CD4 T-cell isolations (see above) were added in a 3:1 nurse cell:CD4 T-cell ratio. In order to eliminate potential confounding by CD4dim monocytes, all CD4+ cells were depleted from the nurse cells (<<1% residual), prior to their use in cultures, by positive selection with anti-CD4-coated magnetic beads (Invitrogen, Carlsbad, Calif.). Cyclosporine (Novartis, East Hanover, N.J.) to a final concentration of 100 ng/ml was added to half the wells. Proliferation within the respective CD4 subpopulations were measured by bromodeoxyuridine (BrdU) incorporation, using reagents and methods supplied in a kit (BD Pharmingen). In brief, BrdU in a final concentration of 10 μM was added to cultures two days prior to their harvests. After 5±1 days of culture, cells were harvested from wells and stained with anti-CD4, fixed and permeabilized, and then incubated with anti-BrdU and 7-amino-actinomycin (7-AAD). The proportion of proliferating CD4+ T cells (BrdU+) among the viable cells (≧diploid DNA content) was determined by flow cytometry.
compound,measurement,value
C=CC[C@@H]1/C=C(\C)C[C@H](C)C[C@H](OC)[C@H]2O[C@@](O)(C(=O)C(=O)N3CCCC[C@H]3C(=O)O[C@H](/C(C)=C/[C@@H]3CC[C@@H](O)[C@H](OC)C3)[C@H](C)[C@@H](O)CC1=O)[C@H](C)C[C@@H]2OC [tacrolimus],resistance of CD4+CD28null T cells to the drug,relatively resistant
